# Laboratory results published in article PMC3508466 (Chemistry & biology, 2012).
# Several values for one entry are separate records, joined by “and”; a condition that tells them apart may be missing. Equal values may be shown once. Entries after “also recorded” stand apart in the source; their conditions may differ. Read-outs that look alike come from different tables or passages of the source.
# Key:
# ClC-ec1 [1] = molecular target: T1, ClC-ec1 (Escherichia coli, UniProt P37019); experiment: Cl− efflux assay, ClC-ec1 reconstituted into liposomes; assay type: biochemical, E. coli; conditions: for inhibition of ClC-ec1 by parent compounds: concentrations up to 1 mM
# T1 sequence (P37019 whole entry): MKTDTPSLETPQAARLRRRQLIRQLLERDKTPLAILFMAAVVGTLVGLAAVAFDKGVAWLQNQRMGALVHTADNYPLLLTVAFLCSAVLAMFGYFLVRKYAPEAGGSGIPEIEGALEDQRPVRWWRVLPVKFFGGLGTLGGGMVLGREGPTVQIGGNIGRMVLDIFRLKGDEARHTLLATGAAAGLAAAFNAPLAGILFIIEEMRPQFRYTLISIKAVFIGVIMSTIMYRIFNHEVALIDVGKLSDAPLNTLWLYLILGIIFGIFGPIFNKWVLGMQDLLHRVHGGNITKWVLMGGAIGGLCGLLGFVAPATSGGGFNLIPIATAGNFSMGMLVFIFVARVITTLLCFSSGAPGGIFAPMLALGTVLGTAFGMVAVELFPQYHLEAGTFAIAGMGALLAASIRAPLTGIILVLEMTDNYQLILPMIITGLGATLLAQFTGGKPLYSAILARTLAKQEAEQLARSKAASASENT
# human ClC-1 = human ClC-1 (Homo sapiens, UniProt P35523); experiment: Inside-out patches excised from Xenopus oocytes expressing human ClC-1; assay type: cell-based; conditions: 30 μM
# Chain of human ClC-1 (P35523 whole entry): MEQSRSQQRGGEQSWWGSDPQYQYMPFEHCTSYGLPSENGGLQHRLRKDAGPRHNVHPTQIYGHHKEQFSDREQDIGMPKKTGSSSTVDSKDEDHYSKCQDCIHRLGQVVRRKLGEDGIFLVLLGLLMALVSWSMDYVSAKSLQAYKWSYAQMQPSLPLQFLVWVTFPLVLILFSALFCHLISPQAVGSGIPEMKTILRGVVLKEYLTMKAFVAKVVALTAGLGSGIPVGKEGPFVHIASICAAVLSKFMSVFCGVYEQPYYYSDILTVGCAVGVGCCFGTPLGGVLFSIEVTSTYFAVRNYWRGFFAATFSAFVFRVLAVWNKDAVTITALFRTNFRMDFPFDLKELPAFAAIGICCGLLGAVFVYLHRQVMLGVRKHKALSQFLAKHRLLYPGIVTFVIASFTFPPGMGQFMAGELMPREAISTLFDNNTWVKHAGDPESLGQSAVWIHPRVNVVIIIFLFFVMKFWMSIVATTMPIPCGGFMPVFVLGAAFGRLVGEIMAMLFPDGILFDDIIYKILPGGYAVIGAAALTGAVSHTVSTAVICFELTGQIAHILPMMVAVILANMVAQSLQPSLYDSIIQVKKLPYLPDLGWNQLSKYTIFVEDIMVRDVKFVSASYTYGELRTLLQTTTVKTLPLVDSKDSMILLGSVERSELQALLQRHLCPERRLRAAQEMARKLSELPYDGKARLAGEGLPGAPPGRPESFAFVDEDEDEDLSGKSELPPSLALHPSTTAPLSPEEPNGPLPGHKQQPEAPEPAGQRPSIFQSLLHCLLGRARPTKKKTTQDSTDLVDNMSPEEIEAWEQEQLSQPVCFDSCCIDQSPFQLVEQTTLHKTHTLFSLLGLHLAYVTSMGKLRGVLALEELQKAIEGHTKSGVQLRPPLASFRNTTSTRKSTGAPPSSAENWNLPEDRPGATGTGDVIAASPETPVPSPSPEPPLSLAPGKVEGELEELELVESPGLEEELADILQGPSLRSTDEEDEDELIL
# [2] = tested on: ClC-ec1 R160, R167 and R174 mutant; experiment: Cl− efflux assay, ClC-ec1 with R160, R167 and R174 mutated; assay type: biochemical; conditions: E. coli polar lipids
# [3] = tested on: ClC-ec1 R23 and K30 mutant; experiment: Cl− efflux assay, ClC-ec1 with R23 and K30 mutated; assay type: biochemical, E. coli
# [4] = tested on: ClC-ec1 R17, R18, and R19 mutant; experiment: Cl− efflux assay, ClC-ec1 with R17, R18 and R19 mutated; assay type: biochemical, E. coli
# [5] = tested on: ClC-ec1 intracellular vestibule triple mutant; assay type: biochemical, E. coli
# ClC-ec1 [6] = molecular target: T1, ClC-ec1; conditions: for Hill coefficient n / Imax (maximal inhibition): cis chamber
# ClC-ec1 K169A mutant = ClC-ec1 K169A mutant (Escherichia coli, UniProt P37019, K169A); conditions: E. coli polar lipids
# Chain of ClC-ec1 K169A mutant (P37019 whole entry K169A): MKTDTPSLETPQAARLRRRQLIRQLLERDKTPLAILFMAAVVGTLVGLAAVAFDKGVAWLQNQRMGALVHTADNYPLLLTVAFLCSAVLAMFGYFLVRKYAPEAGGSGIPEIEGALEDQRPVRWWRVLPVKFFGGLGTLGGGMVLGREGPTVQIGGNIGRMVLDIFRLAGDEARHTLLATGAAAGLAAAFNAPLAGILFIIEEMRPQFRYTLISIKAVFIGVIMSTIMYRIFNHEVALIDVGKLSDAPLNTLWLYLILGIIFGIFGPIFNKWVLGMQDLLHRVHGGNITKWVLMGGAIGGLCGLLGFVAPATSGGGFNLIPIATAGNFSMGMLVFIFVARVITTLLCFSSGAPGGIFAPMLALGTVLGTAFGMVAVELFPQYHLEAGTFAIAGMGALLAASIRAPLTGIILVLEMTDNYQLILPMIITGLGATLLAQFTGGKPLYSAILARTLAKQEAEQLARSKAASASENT
# ClC-ec1 [7] = molecular target: T1, ClC-ec1
# [8] = molecular target: ClC-ec1 R28A/K216A mutant (Escherichia coli, UniProt P37019, K216A/R28A); conditions: E. coli polar lipids
# Chain of ClC-ec1 R28A/K216A mutant (P37019 whole entry R28A/K216A): as the sequence (P37019 whole entry K169A) above, with R28A, A169K, K216A counted along it
smiles,measurement,setting,value
"Nc1ccc(C=Cc2ccc(N)cc2S(=O)(=O)O)c(S(=O)(=O)O)c1 [DADS, 4,4′-diaminostilbene-2,2′-disulfonate]",inhibition of ClC-ec1 by known CLC channel inhibitors (lead panel),ClC-ec1 [1],None of these compounds inhibited ClC-ec1
same,inhibition of ClC-ec1 by parent compounds,ClC-ec1 [1],neither parent compound detectably inhibited ClC-ec1
CCCCCCCC(=O)O [octanoic acid],inhibition of ClC-ec1 by known CLC channel inhibitors (lead panel),ClC-ec1 [1],None of these compounds inhibited ClC-ec1
same,inhibition of ClC-ec1 by parent compounds,ClC-ec1 [1],neither parent compound detectably inhibited ClC-ec1
"CCCCCCCC(=O)Nc1ccc(C=Cc2ccc(NC(=O)CCCCCCC)cc2S(=O)(=O)O)c(S(=O)(=O)O)c1 [OADS, 4,4′-octanamidostilbene-2,2′-disulfonate]",inhibition of ClC-ec1,"ClC-ec1 [1]; 30 μM, PE/PG liposomes",84%
same,Ki,ClC-ec1 [1]; PE/CLN liposomes,32 µM
same,Hill coefficient n,ClC-ec1 [1]; PE/PG liposomes,1.9
same,Ki,ClC-ec1 [1]; PE/PG liposomes,7.3 µM
same,Hill coefficient n,ClC-ec1 [1]; liposomes from E. coli polar lipids,1.9
same,Ki,"ClC-ec1 [1]; read-out: Ki (apparent affinity, concentration for half-maximal inhibition), liposomes from E. coli polar lipids, pH 4.0",~30 µM and 29 µM
same,increase in potency compared to either parent compound,ClC-ec1 [1]; versus octanoic acid and DADS,over 100 fold
same,inhibition of ClC-1,human ClC-1,20%
same,influence of mutation on OADS inhibition,[2],had no influence
same,effect of mutation on OADS inhibition,[3],had no effect on OADS inhibition
same,effect of mutation on OADS inhibition,[4],had no effect on OADS inhibition
same,effect of mutation on inhibition by OADS,[5],has no effect on inhibition by OADS
same,effect of OADS applied to the opposite chamber from DIDS,ClC-ec1 [6],significant additional inhibition
same,time to complete reversal of inhibition after perfusion with OADS-free solution,"ClC-ec1 [6]; 3.3 μM OADS in trans chamber, 4 min is minimum for full perfusion",4 to 10 min
same,effect of OADS added after DIDS to the same (cis) chamber,ClC-ec1 [6]; 1 mM DIDS then 15 μM OADS,no additional inhibition; also recorded: has no effect
same,Hill coefficient n,ClC-ec1 [6]; +100 mV,3.9
same,Imax (maximal inhibition),ClC-ec1 [6]; +100 mV,34%
same,maximal inhibition,"ClC-ec1 [6]; OADS added to cis chamber, voltage not specified",~ 40%
same,Hill coefficient n,ClC-ec1 [6]; −100 mV,6.1
same,Imax (maximal inhibition),ClC-ec1 [6]; −100 mV,40%
same,Ki,ClC-ec1 K169A mutant,68 µM
same,change in sensitivity to OADS versus wild type,ClC-ec1 K169A mutant,two-fold decrease in sensitivity
same,effect on Cl− binding to ClC-ec1,ClC-ec1 [7],no significant effect on Cl^− binding to ClC-ec1
O=C(O)C(Cc1ccc(Cl)cc1)Oc1ccc(Cl)cc1 (stereo not drawn) [2-(p-chlorophenoxy)-3-(4-chlorophenyl)propionic acid],inhibition of ClC-ec1 by known CLC channel inhibitors (lead panel),ClC-ec1 [1],None of these compounds inhibited ClC-ec1
O=C(O)c1c2ccccc2cc2ccccc12 [9-anthracene carboxylate],inhibition of ClC-ec1 by known CLC channel inhibitors (lead panel),ClC-ec1 [1],None of these compounds inhibited ClC-ec1
O=C(O)c1cccnc1Nc1cccc(C(F)(F)F)c1 [niflumic acid],inhibition of ClC-ec1 by known CLC channel inhibitors (lead panel),ClC-ec1 [1],None of these compounds inhibited ClC-ec1
"O=C(O)c1cc([N+](=O)[O-])ccc1NCCCc1ccccc1 [NPPB, 5-nitro-2-(3-phenylpropylamino)benzoic acid]",inhibition of ClC-ec1 by known CLC channel inhibitors (lead panel),ClC-ec1 [1],None of these compounds inhibited ClC-ec1
O=C(O)c1ccccc1Nc1cccc(C(F)(F)F)c1 [flufenamic acid],inhibition of ClC-ec1 by known CLC channel inhibitors (lead panel),ClC-ec1 [1],None of these compounds inhibited ClC-ec1
CCCCCCCC(=O)Nc1ccc(/C=C\c2ccc(NC(=O)CCCCCCC)cc2S(=O)(=O)O)c(S(=O)(=O)O)c1 [cis-OADS],"ClC-1 inhibition, cis versus trans isomer",human ClC-1,equally inhibited by both the cis and trans-OADS isomers
same,potency on R28A/K216A relative to trans-OADS,[8],just as potently as trans-OADS
"O=S(=O)(O)c1cc(N=C=S)ccc1C=Cc1ccc(N=C=S)cc1S(=O)(=O)O [DIDS, 4,4′-diisothiocyano-2,2′-stilbenedisulfonic acid, reference compound]",effect of DIDS added after OADS to the same chamber,ClC-ec1 [6],has no effect
same,effect of DIDS applied to the opposite chamber from OADS,ClC-ec1 [6],significant additional inhibition
